This experiment deals with PLK1 (Homo sapiens, UniProt P53350). Nature of the experiment: PLK1 protein kinase assay (CDC25C phosphorylation, [γ-32P]-ATP). The experiment is classed as biochemical. As to conditions: Table 2, PLK1 IC50; class symbols; read-out: PLK1 IC50.

Some results are limits rather than exact numbers.

Sequence of PLK1 (P53350 whole entry): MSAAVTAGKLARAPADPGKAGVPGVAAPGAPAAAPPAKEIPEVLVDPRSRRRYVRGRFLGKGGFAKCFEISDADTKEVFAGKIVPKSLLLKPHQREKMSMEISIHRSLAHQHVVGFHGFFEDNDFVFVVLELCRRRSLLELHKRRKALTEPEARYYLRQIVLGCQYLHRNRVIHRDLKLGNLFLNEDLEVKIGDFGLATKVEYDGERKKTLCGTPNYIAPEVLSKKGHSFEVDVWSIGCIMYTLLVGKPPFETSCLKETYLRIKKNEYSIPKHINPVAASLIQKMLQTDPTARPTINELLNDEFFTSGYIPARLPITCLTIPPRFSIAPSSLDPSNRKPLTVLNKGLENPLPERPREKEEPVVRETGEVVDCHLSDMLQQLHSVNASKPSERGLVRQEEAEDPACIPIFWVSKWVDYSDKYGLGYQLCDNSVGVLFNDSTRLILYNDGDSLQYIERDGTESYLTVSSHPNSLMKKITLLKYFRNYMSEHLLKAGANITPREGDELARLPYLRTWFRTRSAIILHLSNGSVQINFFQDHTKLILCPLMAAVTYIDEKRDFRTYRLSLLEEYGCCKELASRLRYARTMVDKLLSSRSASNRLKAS

`COc1cc(C(=O)NC2CCN(Cc3ccccc3)CC2)ccc1Nc1ncc2c(n1)N(CC1CC1)CCC(=O)N2C` [compound 241, N-(1-Benzyl-piperidin-4-yl)-4-(9-cyclopropylmethyl-5-methyl-6-oxo-6,7,8,9-tetrahydro-5H-pyrimido[4,5-b][1,4]diazepin-2-ylamino)-3-methoxy-benzamide]: the IC50 is < 1000 nM.
As for `COc1cc(C(=O)NCC2CCN(C)CC2)ccc1Nc1ncc2c(n1)N(CC1CC1)CCC(=O)N2C` [compound 242, 4-(9-Cyclopropylmethyl-5-methyl-6-oxo-6,7,8,9-tetrahydro-5H-pyrimido[4,5-b][1,4]diazepin-2-ylamino)-3-methoxy-N-(1-methyl-piperidin-4-ylmethyl)-benzamide], the IC50 was < 1000 nM.
Turning to `COc1cc(C(=O)NC2CN3CCC2CC3)ccc1Nc1ncc2c(n1)N(CC1CC1)CCC(=O)N2C` (centres unmarked) [compound 243, N-(1-Aza-bicyclo[2.2.2]oct-3-yl)-4-(9-cyclopropylmethyl-5-methyl-6-oxo-6,7,8,9-tetrahydro-5H-pyrimido[4,5-b][1,4]diazepin-2-ylamino)-3-methoxy-benzamide], the IC50 is < 1000 nM.
For the molecule `COc1cc(C(=O)NC2CC(C)(C)N(C)C(C)(C)C2)ccc1Nc1ncc2c(n1)N(CC1CC1)CCC(=O)N2C` [compound 244, 4-(9-Cyclopropylmethyl-5-methyl-6-oxo-6,7,8,9-tetrahydro-5H-pyrimido[4,5-b][1,4]diazepin-2-ylamino)-3-methoxy-N-(1,2,2,6,6-pentamethyl-piperidin-4-yl)-benzamide], the IC50 was < 1000 nM.
As for `COc1cc(C(=O)NC2CCCN(C)C2)ccc1Nc1ncc2c(n1)N(CC1CC1)CCC(=O)N2C` (centres unmarked) [compound 245, 4-(9-Cyclopropylmethyl-5-methyl-6-oxo-6,7,8,9-tetrahydro-5H-pyrimido[4,5-b][1,4]diazepin-2-ylamino)-3-methoxy-N-(1-methyl-piperidin-3-yl)-benzamide], the figure is < 1000 nM; as for `COc1cc(C(=O)NCC(C)(C)CN(C)C)ccc1Nc1ncc2c(n1)N(CC1CC1)CCC(=O)N2C` [compound 246, 4-(9-Cyclopropylmethyl-5-methyl-6-oxo-6,7,8,9-tetrahydro-5H-pyrimido[4,5-b][1,4]diazepin-2-ylamino)-N-(3-dimethylamino-2,2-dimethyl-propyl)-3-methoxy-benzamide], < 1000 nM; as for `COc1cc(C(=O)NCCCN(C)C)ccc1Nc1ncc2c(n1)N(CC1CC1)CCC(=O)N2C` [compound 247, 4-(9-Cyclopropylmethyl-5-methyl-6-oxo-6,7,8,9-tetrahydro-5H-pyrimido[4,5-b][1,4]diazepin-2-ylamino)-N-(3-dimethylamino-propyl)-3-methoxy-benzamide], < 1000 nM.
As to `COc1cc(C(=O)NC2CCCC2)ccc1Nc1ncc2c(n1)N(CC1CC1)CCC(=O)N2C` [compound 248, N-Cyclopentyl-4-(9-cyclopropylmethyl-5-methyl-6-oxo-6,7,8,9-tetrahydro-5H-pyrimido[4,5-b][1,4]diazepin-2-ylamino)-3-methoxy-benzamide], the IC50 is < 1000 nM.
As for `COc1cc(C(=O)NCc2cccn2C)ccc1Nc1ncc2c(n1)N(CC1CC1)CCC(=O)N2C` [compound 249, 4-(9-Cyclopropylmethyl-5-methyl-6-oxo-6,7,8,9-tetrahydro-5H-pyrimido[4,5-b][1,4]diazepin-2-ylamino)-3-methoxy-N-(1-methyl-1H-pyrrol-2-ylmethyl)-benzamide], the IC50 is < 1000 nM.
As for `COc1cc(C(=O)NC(C)(C)CN2CCCC2)ccc1Nc1ncc2c(n1)N(C1CCCC1)CC1(CC1)C(=O)N2C` [compound 250, 4-(9-Cyclopentyl-5-methyl-6-oxo-6,7,8,9-tetrahydro-5H-pyrimido[4,5-b][1,4]diazepin-3,1′-cyclopropane-2-ylamino)-N-(1,1-dimethyl-2-pyrrolidin-1-yl-ethyl)-3-methoxy-benzamide], the figure is < 1000 nM; as for `COc1cc(C(=O)NC(C)(C)CN2CCCCC2)ccc1Nc1ncc2c(n1)N(C1CCCC1)CC1(CC1)C(=O)N2C` [compound 251, 4-(9-Cyclopentyl-5-methyl-6-oxo-6,7,8,9-tetrahydro-5H-pyrimido[4,5-b][1,4]diazepin-3,1′-cyclopropane-2-ylamino)-N-(1,1-dimethyl-2-piperidin-1-yl-ethyl)-3-methoxy-benzamide], < 1000 nM.
The figure for `COc1cc(C(=O)NC2CCN(Cc3ccccc3)CC2)ccc1Nc1ncc2c(n1)N(C1CCCC1)CC1(CC1)C(=O)N2C` [compound 252, 4-(9-Cyclopentyl-5-methyl-6-oxo-6,7,8,9-tetrahydro-5H-spiro[pyrimido[4,5-b][1,4]diazepin-3,1′-cyclopropane]-2-ylamino)-3-methoxy-N-(1-benzylpiperidin-4-yl)-benzamide] is < 1000 nM; for `COc1cc(C(=O)NCC2CCN(C)CC2)ccc1Nc1ncc2c(n1)N(C1CCCC1)CC1(CC1)C(=O)N2C` [compound 253, 4-(9-Cyclopentyl-5-methyl-6-oxo-6,7,8,9-tetrahydro-5H-pyrimido[4,5-b][1,4]diazepin-3,1′-cyclopropane-2-ylamino)-3-methoxy-N-(1-methyl-piperidin-4-ylmethyl)-benzamide] it is < 100 nM.
The figure for `COc1cc(C(=O)NC2CC(C)(C)N(C)C(C)(C)C2)ccc1Nc1ncc2c(n1)N(C1CCCC1)CC1(CC1)C(=O)N2C` [compound 255, 4-(9-Cyclopentyl-5-methyl-6-oxo-6,7,8,9-tetrahydro-5H-spiro[pyrimido[4,5-b][1,4]diazepin-3,1′-cyclopropane]-2-ylamino)-3-methoxy-N-(1,2,2,6,6-pentamethyl-piperidin-4-yl)-benzamide] is < 100 nM; for `COc1cc(C(=O)NCC(C)(C)CN(C)C)ccc1Nc1ncc2c(n1)N(C1CCCC1)CC1(CC1)C(=O)N2C` [compound 256, 4-(9-Cyclopentyl-5-methyl-6-oxo-6,7,8,9-tetrahydro-5H-pyrimido[4,5-b][1,4]diazepin-3,1′-cyclopropane-2-ylamino)-N-(3-dimethylamino-2,2-dimethyl-propyl)-3-methoxy-benzamide] it is < 100 nM.
As to `COc1cc(C(=O)NCc2ccncc2)ccc1Nc1ncc2c(n1)N(C1CCCC1)CC1(CC1)C(=O)N2C` [compound 258, 4(9-Cyclopentyl-5-methyl-6-oxo-6,7,8,9-tetrahydro-5H-pyrimido[4,5-b][1,4]diazepin-3,1′-cyclopropane-2-ylamino)-3-methoxy-N-pyridin-4-ylmethyl-benzamide], the IC50 was < 100 nM.
`COc1cc(C(=O)NCc2cccn2C)ccc1Nc1ncc2c(n1)N(C1CCCC1)CC1(CC1)C(=O)N2C` [compound 259, 4-(9-Cyclopentyl-5-methyl-6-oxo-6,7,8,9-tetrahydro-5H-pyrimido[4,5-b][1,4]diazepin-3,1′-cyclopropane-2-ylamino)-3-methoxy-N-(1-methyl-1 H-pyrrol-2-ylmethyl)-benzamide]: the IC50 is < 100 nM.
Turning to `COc1cc(C(=O)NC2CCCC2)ccc1Nc1ncc2c(n1)N(C1CCCC1)CC1(CC1)C(=O)N2C` [compound 260, N-Cyclopentyl-4-(9-Cyclopentyl-5-methyl-6-oxo-6,7,8,9-tetrahydro-5H-spiro[pyrimido[4,5-b][1,4]diazepin-3,1′-cyclopropane]-2-ylamino)-3-methoxy-benzamide], the IC50 was < 100 nM.
As to `CCc1cc(C(=O)NC2CCN(C)CC2)ccc1Nc1ncc2c(n1)N(C1CCCC1)CC1(CC1)C(=O)N2C` [compound 261, 4-(9-Cyclopentyl-5-methyl-6-oxo-6,7,8,9-tetrahydro-5H-spiro(pyrimido[4,5-b][1,4]diazepin-3,1′-cyclopropane]-2-ylamino)-3-ethyl-N-(1-methyl-piperidin-4-yl)-benzamide], the IC50 is < 100 nM.
On to `COc1cc(C(=O)NC2CCN(C)CC2)ccc1Nc1ncc2c(n1)N(CC1CC1)CC1(CC1)C(=O)N2C` [compound 262, 4-(9-Cyclopropylmethyl-5-methyl-6-oxo-6,7,8,9-tetrahydro-5H-pyrimido[4,5-b][1,4]diazepin-3,1′-cyclopropane-2-ylamino)-3-methoxy-N-(1-methyl-piperidin-4-yl)-benzamide], for which the IC50 is < 100 nM.
Turning to `COc1ccc(C(=O)NCCOCCO)cc1Nc1ncc2c(n1)N(C1CCCC1)CCC(=O)N2C` [compound 263, 3-(9-Cyclopentyl-5-methyl-6-oxo-6,7,8,9-tetrahydro-5H-pyrimido[4,5-b][1,4]diazepin-2-ylamino)-N-[2-(2-hydroxy-ethoxy)-ethyl]-4-methoxy-benzamide], the IC50 was < 1000 nM.
`CONC(=O)c1ccc(OC)c(Nc2ncc3c(n2)N(C2CCCC2)CCC(=O)N3C)c1` [compound 264, 3-(9-Cyclopentyl-5-methyl-6-oxo-6,7,8,9-tetrahydro-5H-pyrimido[4,5-b][1,4]diazepin-2-ylamino)-4,N-dimethoxy-benzamide]: the IC50 is < 1000 nM.
Turning to `COc1ccc(C(=O)NC2CCN(Cc3ccccc3)C2)cc1Nc1ncc2c(n1)N(C1CCCC1)CCC(=O)N2C` (centres unmarked) [compound 265, N-(1-Benzyl-pyrrolidin-3-yl)-3-(9-cyclopentyl-5-methyl-6-oxo-6,7,8,9-tetrahydro-5H-pyrimido[4,5-b][1,4]diazepin-2-ylamino)-4-methoxy-benzamide], the IC50 is < 1000 nM.
For `COc1ccc(C(=O)NCCN2CCOCC2)cc1Nc1ncc2c(n1)N(C1CCCC1)CCC(=O)N2C` [compound 266, 3-(9-Cyclopentyl-5-methyl-6-oxo-6,7,8,9-tetrahydro-5H-pyrimido[4,5-b][1,4]diazepin-2-ylamino)-4-methoxy-N-(2-morpholin-4-yl-ethyl)-benzamide], the IC50 was < 1000 nM.
As for `COc1ccc(C(=O)NCCc2c[nH]cn2)cc1Nc1ncc2c(n1)N(C1CCCC1)CCC(=O)N2C` [compound 267, 3-(9-Cyclopentyl-5-methyl-6-oxo-6,7,8,9-tetrahydro-5H-pyrimido[4,5-b][1,4]diazepin-2-ylamino)-N-[2-(1H-imidazol-4-yl)-ethyl]-4-methoxy-benzamide], the figure is < 1000 nM; as for `COc1ccc(C(=O)NCc2cccn2C)cc1Nc1ncc2c(n1)N(C1CCCC1)CCC(=O)N2C` [compound 268, 3-(9-Cyclopentyl-5-methyl-6-oxo-6,7,8,9-tetrahydro-5H-pyrimido[4,5-b][1,4]diazepin-2-ylamino)-4-methoxy-N-(1-methyl-1H-pyrrol-2-ylmethyl)-benzamide], < 1000 nM.

(Values after patent US8563542B2 (Cyclacel Limited, priority 2007, dated 2013).)
